The subject of data set [1] is Kidney cancer (Caki-1) cells. Kind of data set: Caki-1 cell viability (MTT), peptides and ADP-ribose alone or in combination. Conditions: treated groups vs untreated, ADPR 1 mM, peptide 25 μM, CPP-peptide 10 μM, 96 hours. The format is cell-based, human. As to the method:
(§1) 2.5×10^3 Kidney cancer (Caki-1) cells were cultured in a 96-well plate for 24 hours under 37° C. and 5% CO2 conditions, and then divided into the following groups and treated with each peptide according to Examples at GI50 concentration alone or in combination. • 1) Untreated group • 2) Group treated with ADPR at 1 mM concentration alone • 3) Group treated with peptide of Example 1 at 25 μM concentration alone • 4) Group treated with each CPP-peptide of Example 15 at 10 μM concentration alone • 5) Group treated in combination with ADPR at 1 mM concentration and peptide of Example 1 at 25 μM concentration (Combination 1) • 6) Group treated in combination with ADPR at 1 mM concentration and CPP-peptide of Example 15 at 10 μM concentration (Combination 2)
(§2) The cells were then cultured for another 96 hours under 37° C. and 5% CO2 conditions, and 10 μl of 3-(4,5-dimethylthiazol-2-yl)-2,5-diphenyltetrazolium bromide reagent was added to each well and reacted for 1 hour. The reagent was removed at the end of the reaction, 200 μl of dimethyl sulfoxide was then added to each well, and the absorbance was measured to determine the cell viability.

Data set [2] has as its system Liver cancer (HepG2) cells. As to the kind of experiment: HepG2 cell viability (MTT), peptides and ADP-ribose alone or in combination. It is filed as cell-based, human. Conditions: treated groups vs untreated, ADPR 1 mM, peptide 25 μM, CPP-peptide 10 μM, 96 hours. How it is done:
as §1, with “2.5×10^3 Liver” for “2.5×10^3 Kidney”, “cancer (HepG2)” for “cancer (Caki-1)”, “Example 4” for “Example 1”, “Example 18” for “Example 15”
as §2

Data set [3] has as its system Breast cancer (HCC1937) cells. As to the kind of experiment: HCC1937 cell viability (MTT), peptides and ADP-ribose alone or in combination. Conditions: treated groups vs untreated, ADPR 1 mM, peptide 25 μM, CPP-peptide 10 μM, 96 hours. The format is cell-based, human. How it is done:
as §1, with “2.5×10^3 Breast” for “2.5×10^3 Kidney”, “cancer (HCC1937)” for “cancer (Caki-1)”, “Example 2” for “Example 1”, “Example 16” for “Example 15”
as §2

The subject of data set [4] is PARP inhibitor-resistant breast cancer (HCC1937) cells. As to the kind of experiment: Cell viability (MTT) in PARP inhibitor-resistant cancer cell line. Conditions: ADPR 1 mM, peptide 25 μM or CPP-peptide 10 μM alone, 96 hours. It is filed as cell-based, human. How it is done: Specifically, 2.5×10^3 PARP inhibitor-resistant breast cancer (HCC1937) cells were cultured in a 96-well plate for 24 hours under 37° C. and 5% CO2 conditions.
The cells were then divided into the following groups and treated with each peptide according to Examples at GI50 concentration alone or in combination. • 1) Untreated group • 2) Group treated with PARP inhibitor (Olaparib) at 2 μM concentration • 3) Group treated with ADPR at 1 mM concentration alone • 4) Groups treated with each peptide of Examples 1 to 6 at 25 μM concentration alone • 5) Groups treated with each CPP-peptide of Examples 15 to 20 at 10 μM concentration alone • 6) Group treated in combination with ADPR at 1 mM concentration and each peptide of Examples 1 to 6 at 25 μM concentration (Combination 1) • 6) Group treated in combination with ADPR at 1 mM concentration and CPP-peptide of Examples 15 to 20 at 10 μM concentration (Combination 2)
as §2

A further data set deals with MDA-MB-231 cancer cells. As to the kind of experiment: MDA-MB-231 cell viability (MTT), sustained release derivative alone or in combination. It is filed as cell-based. Conditions: single treatment (derivative 5 μM, ADPR 2 mM, NAD^+ 2 mM, anti-cancer drugs), 96 hours. How it is done: Each of 2.5×10^3 human-derived pancreatic cancer (Aspc-1), kidney cancer (Caki-1), breast cancer (HCC1937), liver cancer (HepG2), lung cancer (H1975), colon cancer (HCT116), ovarian cancer (OVCAR-3), brain cancer (U87) cells were cultured in a 96-well plate under 37° C. and 5% CO2 conditions for 24 hours, and then treated with the sustained release derivative alone. In addition, MDA-MB-231 cancer cells were divided into the following groups and treated with each formulation at GI20 concentration alone or in combination. • 1) Untreated group • 2) Group treated with sustained-release derivative alone at 5 μM concentration • 3) Group treated with ADPR at 2 mM concentration alone • 4) Group treated with NAD^+ at 2 mM concentration alone • 5) Groups treated with various anti-cancer drugs alone (Cisplatin at 2 μM, Docetaxel at 1 μM, Dichloroacetate at 3 mM, Doxorubicin at 2 μM, Sorafenib at 2 μM, Osimertinib at 10 nM, Trastuzumab at 0.2 μM, Bevacizumab at 0.2 nM, Tamoxifen at 0.2 μM, or Olaparib at 1 μM) • 6) Group treated in combination with ADPR at 2 mM concentration and a sustained-release derivative at 5 μM concentration • 7) Group treated in combination with ADPR at 2 mM concentration, NAD^+ at 2 mM concentration, and a sustained-release derivative at 5 μM concentration • 8) Group treated in combination with ADPR at 2 mM concentration, a sustained-release derivative at 5 μM concentration, and various anti-cancer drugs (same concentration as Group 5 above).
The cells were then cultured for another 96 hours at 37° C. and 5% CO2, and 10 μl of 3-(4,5-dimethylthiazol-2-yl)-2,5-diphenyltetrazolium bromide reagent was added to each well and reacted for 1 hour. The reagent was removed at the end of the reaction, 200 μl of dimethyl sulfoxide was then added to each well, and the absorbance was measured to determine the cell viability.

Take `Nc1ncnc2c1ncn2[C@@H]1O[C@H](COP(=O)(O)OP(=O)(O)OC[C@H]2O[C@@H](O)C(O)C2O)C(O)C1O` (some centres unmarked) [ADP-ribose]: the cell viability (as a rule, the share of living cells, or the viability signal relative to a control) in data set [1] is on record as “viability was reduced”; in data set [2], “viability was reduced”; in data set [3], “viability was reduced”; in the data set with MDA-MB-231 cancer cells, 80%. Besides, in data set [4], the “cell viability, single treatment” value was “significantly reduced cell viability”.
